Publication PMC6018746, “Activation of the p53-MDM4 regulatory axis defines the anti-tumour response to PRMT5 inhibition through its role in regulating cellular splicing” (Scientific Reports, 2018)

Experiment: body weight of Z-138 tumour bearing mice
Format: in vivo, mouse
Conditions: any of the treatment groups
Text: Supplementary Figure S7. […] Z-138 tumour
Treatments were reinstated on day 32 for 2 weeks followed by a one week holiday.

**Q.** For `CC(=O)N1CCC(Nc2cc(C(=O)NC[C@H](O)CN3CCc4ccccc4C3)ncn2)CC1` [GSK3326595], which body weight is on record?
**A.** No significant body weight losses
